Measurements reported in patent US20050074803A1, “Method for determining an active agent dose” (Bayer Technology Services GmbH, priority 2003, published 2005).
Read-outs that look alike come from different tables or passages of the source.

Legend:
[1] = Experimental maximum plasma concentration of digoxin in patients by MDR1 exon 26 (C3435T) polymorphism; format: in vivo, human; settings: type TT versus wild type
Source text: The transport protein which has been most widely studied and described in the literature is p-glycoprotein (P-Gp) which, besides other organs, is expressed particularly in the gut where it can have an influence on the absorption of orally applied active agents. The associated gene is generally identified as MDR1. MDR1 may be present in different alleles, it being known that these lead to different activity of the associated protein (see Martin F. Fromm, The influence of MDR1 polymorphisms on P-glycoprotein expression and function in humans, Advanced Drug Delivery Reviews 54, 1295 (2002)). For P-Gp, tables of pharmaceutical active agents which are a substrate for it have been published (see for example C. J. Matheny et al., Pharmacokinetic and Pharmacodynamic Implications of P-glycoprotein Modulation, Pharmacotherapy, 21, 778 (2001)). One example of such a substrate is digoxin.
For instance, the Cmax values (maximum plasma concentration) listed in Table 1 are given for the polymorphism in exon 26 (C3435T).

[2] = human
[3] = 0.25 mg digoxin, cited from earlier work

Q: For `C[C@H]1O[C@@H](O[C@H]2[C@@H](O)C[C@H](O[C@H]3[C@@H](O)C[C@H](O[C@H]4CC[C@@]5(C)[C@H](CC[C@@H]6[C@@H]5C[C@@H](O)[C@]5(C)[C@@H](C7=CC(=O)OC7)CC[C@]65O)C4)O[C@@H]3C)O[C@@H]2C)C[C@H](O)[C@@H]1O` [digoxin], which “experimentally found increase of Cmax” value [1] is on record?
A: Its value is 30%.

Q: What about the clearance [2] of the same compound?
A: Its clearance is 0.48 mL/min/kg.

Q: What about the Papp ([2]; not told) of the same compound?
A: The Papp was 1.4 ×10⁻⁶ cm/s.

Q: What about the fraction unbound ([2]; plasma) of the same compound?
A: The fraction unbound was 0.73.

Q: And the Cmax experiment ([3]; patients with CC (wild type) polymorphism in exon 26 (C3435T) of MDR1, plasma)?
A: The Cmax experiment was 1.6 ng/mL.

Q: And the Cmax experiment ([3]; patients with TT (homozygotic) polymorphism in exon 26 (C3435T) of MDR1, plasma)?
A: The Cmax experiment was 2.1 ng/mL.
